Key:
murine HSL = molecular target: T1, murine HSL (Mus musculus, UniProt P54310); experiment: HSL activity, overexpressed in COS-7 lysates, triolein substrate; format: biochemical; conditions: Fig. 2C
T1 construct: His-tag (vector pcDNA4/HisMax); made in house; host or cells: COS-7 cells, transient transfection, 1,000 x g lysate
T1 sequence (P54310 1-759): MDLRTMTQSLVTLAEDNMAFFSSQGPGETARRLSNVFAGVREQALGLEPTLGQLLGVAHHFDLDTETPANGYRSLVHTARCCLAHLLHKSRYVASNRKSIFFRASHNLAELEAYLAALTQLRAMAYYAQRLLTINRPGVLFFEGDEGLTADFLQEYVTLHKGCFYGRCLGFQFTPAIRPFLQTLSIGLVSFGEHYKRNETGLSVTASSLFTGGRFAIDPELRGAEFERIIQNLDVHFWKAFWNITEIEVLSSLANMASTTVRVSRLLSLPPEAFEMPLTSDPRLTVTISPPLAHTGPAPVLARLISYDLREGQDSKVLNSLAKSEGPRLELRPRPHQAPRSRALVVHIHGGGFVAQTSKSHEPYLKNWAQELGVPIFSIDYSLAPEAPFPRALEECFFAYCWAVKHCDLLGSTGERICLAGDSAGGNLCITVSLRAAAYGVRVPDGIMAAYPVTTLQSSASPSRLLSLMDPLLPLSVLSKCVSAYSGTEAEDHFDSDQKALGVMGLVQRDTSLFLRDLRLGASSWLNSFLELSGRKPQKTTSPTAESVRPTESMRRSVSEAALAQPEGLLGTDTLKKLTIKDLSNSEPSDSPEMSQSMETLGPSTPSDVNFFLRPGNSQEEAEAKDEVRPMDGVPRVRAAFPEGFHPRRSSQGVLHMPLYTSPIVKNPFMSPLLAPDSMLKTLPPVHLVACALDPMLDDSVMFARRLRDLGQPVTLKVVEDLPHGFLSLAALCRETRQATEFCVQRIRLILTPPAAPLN
Description: • Figure 1. Structure of compounds 1 to 3 (reference) and compound 4 (atglistatin) and effect on ATGL activity. For determination of lipase activity, lysates of E. coli overexpressing recombinant strep-tagged ATGL and CGI-58 were incubated with a substrate containing radiolabeled [9,10-3H(N)]-triolein. Subsequently, FA were extracted and quantified by liquid scintillation counting. Lysates of cells expressing empty vector were set as blank. Inhibitors were solubilized in DMSO and added at the indicated concentrations. DMSO alone was used as negative control. (A) Structure and IC50 values of compounds 1-4. (B) Dose-dependent inhibition of ATGL in the presence of compound 3 and 4. […] (C) Lineweaver-Burk plots for kinetic analysis of ATGL inhibition. Experiments were performed at varying concentrations of substrate (0.05 - 3 mM) in presence and absence of compound 4 (Atglistatin). […] Lipase activity of ATGL, HSL, lipoprotein lipase, and pancreatic lipase was determined using triolein as substrate. MGL activity was detected in the presence of rac-(1,3)-monooleoylglycerol as substrate. […] The release of FA (A) and glycerol (B) in the media was determined using commercial kits. […] At the indicated timepoints blood was taken retroorbitally and plasma parameters were measured using commercial kits. […] 8 h after gavage blood was taken retroorbitally and plasma parameters were measured using commercial kits. […]

[1] = Tissue TG content after oral gavage in fasted mice; format: in vivo, C57BI6 mice
Description: Animals. Mice (C57BI/6J) were maintained on a regular light-dark cycle (14 hours light, 10 hours dark) and kept on a standard laboratory chow diet (4.5% wt/wt fat, Sniff GMBH Germany). Maintenance, handling, and tissue collection from mice has been approved by the Austrian Federal Ministry of Science and Research Education and by the ethics committee of the University of Graz. Atglistatin was orally administrated by gavage of 200 µl olive oil containing Atglistatin.
Determination of tissue TG content. For tissue collection mice were euthanized by cervical dislocation. Subsequently, tissues were excised and snap frozen. After homogenisation in buffer A without DTT, TG was measured using TG reagent (Thermo Electron Corp., Victoria, Australia).
Table 1. Inhibition of lipolysis in vivo. C57BI6 mice were fasted overnight and received an oral gavage containing 200 µmol/kg Atglistatin dissolved in olive oil, or olive oil as control. After 8 h blood was taken retroorbitally and mice were sacrificed. (A) Plasma parameters were measured using commercial kits. (B) Tissue triglyceride (TG) and protein levels were determined in whole tissue lysates and are presented as TG (nmol) per protein (mg). Data are presented as mean + S.D. (*, p < 0.05 **, p < 0.01; ***, p < 0.001). n = 7

## CN(C)C(=O)Nc1cccc(-c2ccc(N(C)C)cc2)c1 [Atglistatin, atglistatin]
Murine HSL
  effect on HSL activity: only minor effects
[1]; 200 µmol/kg oral gavage, after 8 h, mean ± S.D., n = 7
  Tissue triglyceride (TG), skeletal muscle: 99 ± 13 nmol TG /mg protein
[1]; mouse, in vivo
  accumulation of TG in cardiac muscle and other tissues: did not promote the accumulation of TG
